One data set relates to human melanoma 1205Lu. Description: Suppression of growth of human melanoma in RAG-1 mice. In kind it is in vivo. From the text: As apparent from FIG. 5, melanoma 1205Lu develops aggressively in RAG-1 mice after implantation.
Data set [1] relates to Xenopus tadpole, stage 59-60. Description: Tadpole assay. The following applies: 10 μg/ml; for pharmacological response in tadpole (words): stage 59-60. In kind it is in vivo, Xenopus laevis. From the text:
For example, substances that destroy all of the animal's epithelium, both adult and embryonic, could be regarded as toxic.
The volume of liquid is sufficient for the animal to swim freely and drink from the solution. […] If the volume of liquid is not sufficient to permit oral intake, the effects that are observed would result from absorption through the surface epithelium.
In another embodiment of this assay, a solution of a compound in water can be injected directly into the abdomen of the animal using standard techniques.
After an amount of time, typically about 60 minutes, the occlusion of blood flow through capillaries in the tadpole's tail are observed under an inverted microscope at a magnification of roughly 100×.
In the assay, each of the steroids was dissolved in 100 ml of distilled water at a concentration of 10 μg/ml. Stage 59-60 Xenopus tadpoles were introduced and evaluated by light microscopy and gross observation 1 hour later.

The next data set concerns B16 melanoma. Description: Suppression of growth of B16 melanoma in C57B mice. In kind it is in vivo, mouse. The procedure:
The growth of B16 melanoma in C57B mice is dependent upon neovascularization.
Using the growth of B16 melanoma cells in C57B mice, a recognized model for the evaluation of inhibitors of angiogenesis on the growth of cancers, the effects of subcutaneous, intraperitoneal and oral administration of squalamine were evaluated.

Setting [2] is: listed as Compound 1256 (Squalamine).

SMILES strings stand for the structures. Entries after “also recorded” stand apart in the source; their conditions may differ.

Take `CC(C)[C@@H](CC[C@@H](C)[C@H]1CC[C@H]2[C@@H]3[C@H](O)C[C@H]4C[C@@H](NCCCNCCCCN)CC[C@]4(C)[C@H]3CC[C@]12C)OS(=O)(=O)O` [squalamine]: the “suppression of tumor growth” value in the data set with human melanoma 1205Lu (10, 20, 40 mg/kg/d, FIG. 5) is “clear suppression of tumor growth in a dose-dependent fashion”. For the same compound, the “reversibility after cessation of treatment” value with human melanoma 1205Lu (words) is given as “reversible”. Moreover, the “tissues or functions not affected in tadpole” value in data set [1] is “unaltered blood flow through the fine capillaries of the hands and feet”; in data set [1] (setting [2]), “No effect on vascular flow through hands or feet”. Besides, the “pharmacological response in tadpole (words)” value is “blood flow through the capillaries of the tail shut down; also recorded: common vascular occlusive effect” in data set [1] and “Vascular occlusion in fine capillaries of tail” in data set [1] (setting [2]). Further, the “body weight and hematologic parameters” value in the data set with B16 melanoma (B16-bearing mice) is on record as “no significant depression”. Also, the “suppression of tumor volume” value in the data set with B16 melanoma (intraperitoneal, FIGS. 4B, 4B-1) was “dose-dependent suppression of tumor volume”; in the data set on B16 melanoma (oral, FIGS. 4C, 4C-1), “dose-dependent suppression of tumor volume”; in the data set with B16 melanoma (subcutaneous, FIGS. 4A, 4A-1), “dose-dependent suppression of tumor volume”.
